Earlier results, collected in patent US11058138B2, “Composition for calcium supplementation” (ABIOGEN PHARMA S.P.A., priority 2017, dated 2021).

Conditions: versus calcium carbonate

O=C([O-])CC(O)(CC(=O)[O-])C(=O)[O-].O=C([O-])CC(O)(CC(=O)[O-])C(=O)[O-].[Ca+2].[Ca+2].[Ca+2] [calcium citrate]
Bioavailability higher than that of calcium carbonate: 20-30%
